Patent US20060258632A1, “Methods and agents for treating cardiovascular diseases” (Fraunhofer-Gesellschaft zur Forderung der angewandten …, priority 2002, published 2006)

Key:
[1] = tested on: 5-alpha steroid reductase; assay: Testosterone metabolism in human and rat heart microsomal suspensions (HPLC of metabolites); assay type: biochemical; conditions: FIG. 3
[2] = tested on: androgen receptor expression; assay: Androgen receptor expression in cultivated rat heart muscle cells (real-time RT-PCR); assay type: cell-based; conditions: testosterone added to culture medium (100 μM); isolated rat heart muscle cells; FIG. 5c
Method: (§1) Total RNA was isolated from heart tissue using the Total RNA Isolation Kit (Macherey-Nagel, Germany) according to the manufacturer's instructions. The quality of the isolated RNA was assessed by evaluating the ribosomal bands on agarose gel (1%). Of each sample, 2 μg RNA was used for reverse transcription. RNA and random primer (Roche Diagnostics, Mannheim, Germany) were preheated at 70° C. for 10 min. and subsequently incubated with 5×RT-AMV buffer (Roche Diagnostics, Mannheim, Germany), dNTPs (1 mM; Roche Diagnostics, Mannheim, Germany), 40U RNAse inhibitor (Stratagene, Amsterdam, Netherlands) and 20U AMV-RT (Promega, Mannheim, Germany) at a total volume of 20 μl for 60 min. at 42° C. […]
(§2) The studies were conducted With a lightcyler (Roche Diagnostics, Mannheim, Germany). […] By the end of each extension phase, fluorescence was measured to be used for evaluation. To guarantee that no unspecific primer dimers are measured, fluorescence detection was conducted above the temperature characteristic of primer dimers (as assessed in preliminary studies). Amplification was followed by a melting curve analysis, measuring fluorescence by slowly increasing the temperature of the DNA synthesis products from 65° C. to 95° C. […] The exact amount of the obtained PCR product was determined by co-amplification of standardized cardiac cDNA and according to the manufacturer's instructions. […]

alpha-MHC expression = conditions: testosterone substitution (100 μM, 8 h); rat heart muscle cells; FIGS. 7 and 8
Method: as §1, §2

Structure (SMILES)	5-alpha-DHT production decreased ([1]; finasteride 25 μM, heart microsomes, 100 μM testosterone, 4 h at 37° C.) [%]	production of dihydrotestosterone in the heart tissue ([1]; inhibition of 5-alpha reductase)	androgen receptor expression [2]	alpha-MHC expression (alpha-MHC expression)
CC(C)(C)NC(=O)[C@H]1CC[C@H]2[C@@H]3CC[C@H]4NC(=O)C=C[C@]4(C)[C@H]3CC[C@]12C [finasteride]	60	reduced and normalized		
C[C@]12CC[C@H]3[C@@H](CCC4=CC(=O)CC[C@@]43C)[C@@H]1CC[C@@H]2O [testosterone]			reduces and normalizes	normalization
